Experiments:
[1] = Plasma half life after oral administration; format: in vivo; conditions: human
From the text: The immediate release pharmaceutical compositions of the invention, and which are useful in the kits and methods of the invention are “immediate release” tablet dosage forms. The tablets of the invention have neither the pharmacokinetic nor physical characteristics of extended release pharmaceutical dosage forms. Thus, a tablet of the invention will disintegrate or dissolve rapidly, preferably within one hour of administration, and administration of a tablet of the invention will result in a rapid rise in the blood plasma concentration of 5-methyl-2-(2′-chloro-6′-fluoroanilino)phenylacetic acid.

[2] = Clinical efficacy of once a day oral dose (anti-inflammatory, analgesic); format: in vivo, humans
Procedure: Such an agent is particularly useful in the treatment of chronic indications, such as rheumatoid arthritis and osteoarthritis as well as Alzheimer's Disease and prophylaxis of colon cancer, where the drug needs to be taken every day for the duration of a subject's life, because compliance is much easier with once a day dosing.
A single, 400 mg tablet that is easy to swallow facilitates compliance with a once-a-day, 400 mg dose treatment regimen.

[3] = Compressibility of the drug substance; format: physicochemical; conditions: drug substance and its pharmaceutically acceptable salts
Procedure: WO 99/11605, published Mar. 11, 1999 discloses 5-alkyl-2-arylaminophenylacetic acids and derivatives thereof as potent, selective inhibitors of cyclooxygenase-2. […] This active agent, when administered once a day, in a single, immediate release tablet formulation in an amount of about 400 mg, where the active agent comprises about 65% by weight of the tablet, provides effective anti-inflammatory treatment over a 24 hour period, without the use of extended release pharmaceutical formulation excipients and technology, and in a tablet form which is of a size that is easy to swallow.

## Cc1ccc(Nc2c(F)cccc2Cl)c(CC(=O)O)c1 [5-methyl-2-(2′-chloro-6′-fluoroanilino)phenylacetic acid]
[1]
  half-life: 3 to 6 h
[2]; 400 mg
  Analgesic efficacy: effective analgesic dose
[2]; humans, single oral dose of about 400 mg per day, immediate-release tablet
  Anti-inflammatory treatment, duration of action: effective, safe anti-inflammatory treatment over a 24 hour period
[3]
  Compressibility: poor compressibility

— patent publication US20070231382A1, “Pharmaceutical composition” (priority 2001, published 2007)
